# Measurements taken from US11306399B2, “Nanoparticle compositions” (JANUARY THERAPEUTICS, INC., priority 2019, dated 2022).
# System: human patient-derived xenograft (PDX) derived from a human ovarian tumor (CTG-1180, Champions Oncology)
# Assay: In vivo xenograft efficacy (human ovarian tumor PDX) in tumor-bearing mice
# Parameters: species or system Athymic Nude-Foxn1nu mice
# Procedure: A nanoparticle composition comprising Compound 1 and albumin from Example 2 was tested in an in vivo xenograft efficacy model in tumor-bearing mice. Athymic Nude-Foxn1nu mice were implanted subcutaneously with a human patient-derived xenograft (PDX) derived from a human ovarian tumor (CTG-1180, Champions Oncology). Tumors were allowed grow to ˜200 cubic mm before commencement of treatment (day 0). Lyophilized nanoparticle formulations of Compound 1 were rehydrated in 5% dextrose in sterile water (D5W) immediately prior to dosing. Mice were then dosed intravenously with various concentrations of gemcitabine, nanoparticle formulation of Compound 1, or vehicle control (dissolved directly in D5W and dosed in mg of gemcitabine/compound 1 per kg of mouse body weight abbreviated as mpk) once weekly for 4 weeks (mice were dosed on day 0, 7, 14, and 21 with no treatments thereafter). […] Tumor volume was assessed by caliper measurement using the following formula: Tumor volume=width^2×length×0.52. Tumor growth inhibition (TGI) at day 28 was assessed using the following formula: […]. […]
smiles,measurement,setting,value
"Nc1ccn([C@@H]2O[C@H](CO)[C@@H](O)C2(F)F)c(=O)n1 [gemcitabine, 2′,2′-difluoro-2′-deoxycytidine]",Tumor growth inhibition (TGI) at day 28,"40 mpk (152 μmol/kg) intravenously once weekly for 4 weeks (day 0, 7, 14, 21)",88%
same,Tumor growth inhibition (TGI) at day 28,"100 mpk (380 μmol/kg) intravenously once weekly for 4 weeks (day 0, 7, 14, 21)",98%
